Values of other authors in patent US8309351B2, “Methods of identifying agents that inhibit angiogenesis” (Bionomics Limited, priority 2007, dated 2012).

Tested on: lung cancer cells
Settings: knock-down of beta III tubulin in lung cancer cells

CC(=O)O[C@H]1C(=O)[C@@]2(C)[C@H]([C@H](OC(=O)c3ccccc3)[C@]3(O)C[C@H](OC(=O)[C@H](O)[C@@H](NC(=O)c4ccccc4)c4ccccc4)C(C)=C1C3(C)C)[C@]1(OC(C)=O)CO[C@@H]1C[C@@H]2O [paclitaxel]
increase in paclitaxel sensitivity: 39%
